# Where two headings read alike, the source gives them in different places.
# Key:
# [1] = biological target: hPAD4 enzyme (Homo sapiens (Human), UniProt Q9UM07); assay: PAD4 RapidFire Mass Spectrometry (RFMS) activity assay, hPAD4; format: biochemical
# [2] = biological target: mPAD4 (Mus musculus (Mouse), UniProt Q9Z183); assay: PAD4 RapidFire Mass Spectrometry (RFMS) activity assay, mPAD4; format: biochemical
# [3] = 100 nM hPAD4, 50 μM substrate peptide, 1 mM CaCl2, 65 mins at 37° C., read-out: hPAD4 RFMS IC50
# [4] = pIC50=−log(IC50), read-out: hPAD4 RFMS pIC50 (converted)
# [5] = pIC50=−log(IC50), read-out: mPAD4 RFMS pIC50 (converted)
# hPAD4 enzyme, sequence (Q9UM07 whole entry): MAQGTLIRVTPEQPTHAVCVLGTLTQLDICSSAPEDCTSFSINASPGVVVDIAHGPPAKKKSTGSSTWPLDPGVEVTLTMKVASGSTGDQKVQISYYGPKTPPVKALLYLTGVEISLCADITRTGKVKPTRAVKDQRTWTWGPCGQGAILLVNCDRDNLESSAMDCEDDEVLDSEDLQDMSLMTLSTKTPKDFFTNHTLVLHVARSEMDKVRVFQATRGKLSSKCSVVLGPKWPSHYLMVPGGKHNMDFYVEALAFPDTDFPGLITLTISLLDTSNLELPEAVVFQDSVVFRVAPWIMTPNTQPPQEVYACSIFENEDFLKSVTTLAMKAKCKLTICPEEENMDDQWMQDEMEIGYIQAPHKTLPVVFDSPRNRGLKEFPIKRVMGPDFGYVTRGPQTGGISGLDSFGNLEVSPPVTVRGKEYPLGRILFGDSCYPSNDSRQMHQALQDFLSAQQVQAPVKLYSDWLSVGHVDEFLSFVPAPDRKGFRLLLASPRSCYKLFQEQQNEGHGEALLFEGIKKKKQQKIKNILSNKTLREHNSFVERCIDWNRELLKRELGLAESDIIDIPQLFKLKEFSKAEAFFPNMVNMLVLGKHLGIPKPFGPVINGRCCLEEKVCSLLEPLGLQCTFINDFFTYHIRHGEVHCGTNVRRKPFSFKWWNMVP
# mPAD4, sequence (Q9Z183 whole entry): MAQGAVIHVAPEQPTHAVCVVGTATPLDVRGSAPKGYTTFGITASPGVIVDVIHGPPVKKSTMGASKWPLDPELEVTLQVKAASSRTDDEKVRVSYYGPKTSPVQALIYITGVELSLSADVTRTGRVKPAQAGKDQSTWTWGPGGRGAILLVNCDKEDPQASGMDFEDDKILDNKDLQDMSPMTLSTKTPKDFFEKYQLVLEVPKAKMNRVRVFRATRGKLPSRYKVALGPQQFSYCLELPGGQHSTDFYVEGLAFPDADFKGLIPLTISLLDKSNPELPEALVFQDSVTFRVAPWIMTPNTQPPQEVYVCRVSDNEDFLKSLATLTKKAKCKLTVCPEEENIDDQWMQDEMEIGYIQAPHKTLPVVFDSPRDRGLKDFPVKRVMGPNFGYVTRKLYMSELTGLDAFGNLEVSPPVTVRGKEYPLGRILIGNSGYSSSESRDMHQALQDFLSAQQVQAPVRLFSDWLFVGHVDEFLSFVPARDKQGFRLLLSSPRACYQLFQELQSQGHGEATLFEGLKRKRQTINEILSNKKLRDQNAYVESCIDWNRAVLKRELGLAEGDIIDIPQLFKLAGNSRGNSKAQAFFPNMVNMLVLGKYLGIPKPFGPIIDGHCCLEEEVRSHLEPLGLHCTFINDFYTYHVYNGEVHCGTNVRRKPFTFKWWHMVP
"IC50 [1, 3]","IC50 [1, 4]","IC50 [2, 5]",IC50 ([2]; read-out: mPAD4 RFMS IC50),Compound
> 10 µM,10 to 100 µM,,,"C=CC(=O)O[C@@H]1CNC[C@@H]1NC(=O)c1ccc2c(c1)nc(-c1cc3cccnc3n1CC1CC1)n2C (racemic) [Compound I-11, Rac-(3R,4S)-4-{2-[1-(cyclopropylmethyl)-1H-pyrrolo[2,3-b]pyridin-2-yl]-1-methyl-1H-1,3-benzodiazole-5-amido}pyrrolidin-3-yl prop-2-enoate]"
> 10 µM,10 to 100 µM,,,"CN(C)C/C=C/C(=O)N[C@@H]1CCCN(C(=O)c2ccc3c(c2)nc(-c2cc4cccnc4n2CC2CC2)n3C)C1 [Compound I-12, (2E)-N-[(3R)-1-{2-[1-(cyclopropylmethyl)-1H-pyrrolo[2,3-b]pyridin-2-yl]-1-methyl-1H-1,3-benzodiazole-5-carbonyl}piperidin-3-yl]-4-(dimethylamino)but-2-enamide]"
> 10 µM,10 to 100 µM,10 to 100 µM,> 10 µM,"CN(C)C/C=C/C(=O)N[C@@H]1C[C@H](N)CN(C(=O)c2ccc3c(c2)nc(-c2cc4cccnc4n2CC2CC2)n3C)C1 (racemic) [Compound I-10, Cis-rac-(2E)-N-[(3R,5S)-5-amino-1-{2-[1-(cyclopropylmethyl)-1H-pyrrolo[2,3-b]pyridin-2-yl]-1-methyl-1H-1,3-benzodiazole-5-carbonyl}piperidin-3-yl]-4-(dimethylamino)but-2-enamide]"
> 10 µM,100 to 100000 µM,,,"C=CC(=O)N(C)[C@H]1C[C@@H]2CN(C(=O)c3cc(OC)c4c(c3)nc(-c3cc5cccnc5n3CC3CC3)n4C)[C@H]1[C@@H]2N (single isomer, unassigned) [Compound I-17]"
> 10 µM,100 to 100000 µM,,,C/C=C/C(=O)N[C@@H]1CNC[C@H]1NC(=O)c1ccc2c(c1)nc(-c1cc3cccnc3n1CC1CC1)n2C [Compound I-6]
> 10 µM,100 to 100000 µM,,,"CN(C)C/C=C/C(=O)NCCN(CCc1cnc[nH]1)C(=O)c1ccc2c(c1)nc(-c1cc3cccnc3n1CC1CC1)n2C [Compound I-7, (2E)-N-[2-(1-{2-[1-(Cyclopropylmethyl)-1H-pyrrolo[2,3-b]pyridin-2-yl]-1-methyl-1H-1,3-benzodiazol-5-yl}-N-[2-(1H-imidazol-5-yl)ethyl]formamido)ethyl]-4-(dimethylamino)but-2-enamide]"
> 10 µM,100 to 100000 µM,,,"C=CC(=O)N[C@@H]1CCCN(C(=O)c2ccc3c(c2)nc(-c2cc4cccnc4n2CC2CC2)n3C)C1 [Compound I-13, N-[(3R)-1-{2-[1-(cyclopropylmethyl)-1H-pyrrolo[2,3-b]pyridin-2-yl]-1-methyl-1H-1,3-benzodiazole-5-carbonyl}piperidin-3-yl]prop-2-enamide]"
> 10 µM,100 to 100000 µM,10 to 100 µM,> 10 µM,"CN(C)C/C=C/C(=O)N[C@H]1CCN(C(=O)c2ccc3c(c2)nc(-c2cc4cccnc4n2CC2CC2)n3C)C[C@H]1N (racemic) [Compound I-3, Cis-rac-(2E)-N-[(3R,4S)-3-amino-1-{2-[1-(cyclopropylmethyl)-1H-pyrrolo[2,3-b]pyridin-2-yl]-1-methyl-1H-1,3-benzodiazole-5-carbonyl}piperidin-4-yl]-4-(dimethylamino)but-2-enamide]"
> 10 µM,100 to 100000 µM,,,"C=CC(=O)N(C)[C@@H]1C[C@@H]2CN(C(=O)c3cc(OC)c4c(c3)nc(-c3cc5cccnc5n3CC3CC3)n4C)[C@H]1[C@@H]2N (single isomer, unassigned) [Compound I-16]"
